Measured values reported in publication PMC9574929, “Development of Hydrogen Sulfide-Releasing Carbonic Anhydrases IX- and XII-Selective Inhibitors with Enhanced Antihyperalgesic Action in a Rat Model of Arthritis” (Journal of Medicinal Chemistry, 2022).

Key:
[1] = system: rat model of arthritis induced by the intra-articular injection of complete Freund's adjuvant (CFA); assay: Incapacitance test, CFA-induced arthritis; type: in vivo
Protocol: (§1) Articular damage was induced by injection of Complete Freund’s Adjuvant (CFA; Sigma-Aldrich, St Louis, MO, USA), containing 1 mg/mL of heat-killed and dried Mycobacterium tuberculosis in paraffin oil and mannide monooleate, into the tibiotarsal joint.[50] Briefly, the rats were lightly anesthetized with 2% isoflurane, the left leg skin was sterilized with 75% ethyl alcohol, and the lateral malleolus was located by palpation. A 28-gauge needle was then inserted vertically to penetrate the skin and turned distally for insertion into the articular cavity at the gap between the tibiofibular and tarsal bone until a distinct loss of resistance was felt. A volume of 50 μL of CFA was then injected (day 0). Control rats received 50 μL of saline solution (day 0) in the tibiotarsal joint.
(§2) The hybrid derivatives 26, 29, 30, and 31 (1, 10, and 30 mg/kg) were suspended in a 1% solution of carboxymethylcellulose (CMC) sodium salt and acutely per os administered starting from day 14 after CFA i.a. injection, when arthritis was well established. The H2S releaser 3 and CAI 15 were also administered alone or in coadministration at the equimolar dose of compound 30 30 mg/kg (13.23 and 17.71 mg/kg, respectively). The antihypersensitivity effects were evaluated over time by the Paw pressure and Incapacitance tests.
Weight-bearing changes were measured using an incapacitance apparatus (Linton Instrumentation, Norfolk, U.K.) to detect changes in postural equilibrium after a hind limb injury.[53],[54] Rats were trained to stand on their hind paws in a box with an inclined plane (65° from horizontal). This box was placed above the incapacitance apparatus. This allowed us to independently measure the weight that the animal applied on each hind limb. The value reported for each animal is the mean of five consecutive measurements. In the absence of hind limb injury, rats applied an equal weight on both hind limbs, indicating postural equilibrium, whereas an unequal distribution of weight on the hind limbs indicated a monolateral decreased pain threshold. Data are expressed as the difference between the weight applied to the limb contralateral to the injury and the weight applied to the ipsilateral limb (Δ weight).

[2] = Spectrophotometric methylene blue H2S release assay in rat liver homogenate; settings: compound 150 μM, 37 °C
Protocol: The released H2S, trapped by zinc acetate to form zinc sulfide, reacts with N,N-dimethyl-1,4-phenylenediamine in the presence of iron(III) to yield methylene blue, which can be easily quantified by measuring absorbance at 667 nm (MB^+ form) or at 748 nm (MBH^2+).[42],[43] The compound H2S release in different conditions was monitored over time and quantified according to a calibration curve with Na2S (1–300 μM). Incubation of compound 3 and the hybrid derivatives in phosphate buffer at 37 °C either in the presence or absence of thiol compounds (cysteine or glutathione) produced no or a barely detectable H2S release, respectively. […]
Rat liver was homogenized in ice-cold 50 mM potassium phosphate buffer (pH 7.4).[41] Optimal w/v ratios of 1/20 were determined from preliminary experiments (data not shown). […] The released H2S concentration was measured as described previously.[45] […] Baseline H2S concentration was determined in incubates upon addition of trichloroacetic acid directly to the tissue homogenate in absence of the compound. Thus, N,N-dimethyl-p-phenylenediamine sulfate in HCl 5 M (20 mM; 200 μL) and FeCl3 in HCl 1.2 M (30 mM; 200 μL) were added to the mixture, and the absorbance of the formed methylene blue was measured after 30 min at 25 °C at 667 nm using a Varian Cary 300 UV–Visible spectrophotometer. […]

[3] = system: rat model of arthritis induced by the intra-articular injection of complete Freund's adjuvant (CFA); assay: Paw pressure test, CFA-induced arthritis; type: in vivo
Protocol: as §1, §2
The nociceptive threshold of rats was determined with an analgesimeter (Ugo Basile, Varese, Italy), according to the method described by Leighton et al.[51] and Maresca et al.,[52] (doi: 10.1111/jphp.12828). Briefly, a constantly increasing pressure was applied to a small area of the dorsal surface of the hind paw using a blunt conical probe by a mechanical device. Mechanical pressure was increased until vocalization or a withdrawal reflex occurred while rats were lightly restrained. Vocalization or withdrawal reflex thresholds were expressed in grams. […]

[4] = per os, 3 13.23 mg/kg, 15 17.71 mg/kg

O=C(O)c1ccc(-c2cssc2=S)cc1 [Compound 3, 4-(3-Thioxo-3H-1,2-dithiol-4-yl)benzoic Acid]
time of peak of efficacy, Incapacitance test ([1]; after per os treatment): 15 min | antihyperalgesic effect, Incapacitance test, dose equimolar to 30 30 mg/kg [1, 4]: comparable to that of the hybrid analogue 30 at its optimal dose | time at which H2S release peaked / reached a plateau [2]: ~20 min | time of peak antihyperalgesic effect, Paw pressure test ([3]; after per os administration): 15 min | antihyperalgesic effect, Paw pressure test, dose equimolar to 30 30 mg/kg [3, 4]: rapid antihyperalgesic effect that peaked at 15 min and totally disappeared after 45 min
